{"source": "paper PMC4983413", "about": "“Intracellular accumulation of Praziquantel in T lymphoblastoid cell lines, CEM (parental) and CEMVBL(P-gp-overexpressing)” (BMC Pharmacology & Toxicology, 2016)", "key": {"[1]": {"system": "CEM (parental) T-lymphoblastoid cells", "experiment": "Effect of PZQ and tariquidar on intracellular accumulation of SQV in CEM cells (inhibition study)", "type": "cell-based", "description": "(§1) The cell samples were centrifuged (2000 × g for 5 min at 4 °C) and the supernatant fraction discarded. […] The cells were then incubated at 37 °C for 30 min in a shaking water bath. The resulting cell suspensions were then centrifuged (2000 × g for 5 min at 4 °C). 100 μl samples of the supernatant fraction were then removed, and the aliquots used to determine the extracellular (EXT) concentration. The excess supernatant fraction was then discarded and the resulting cell pellet washed three times in 10 ml HBSS and centrifuged (2000 × g for 5 min). The resulting pellets were solubilized by reconstituting in 100 μl of distilled water and used to determine intracellular (INT) concentrations as described in a method previously validated in our laboratory. The experiment was carried out in quadruplicate. The samples were then assayed by HPLC, and the data expressed as cellular accumulation ratio (CAR), the ratio of the intracellular to the extracellular accumulation calculated by the formula, CAR = (INT/EXT) × 10 [intracellular concentrations were calculated using the volume of a single CEM and CEMVBL cell to be 1 picolitre (pl)] [15, 30]."}, "[2]": {"molecular_target": "T1, P-gp (CEMVBL cells) (Homo sapiens, UniProt P08183)", "T1 construct": "CEMVBL cells that have increased expression of P-gp were selected under vinblastine; endogenous in cells; host or cells: CEMVBL (vinblastine-selected CEM T-lymphoblastoid cells)", "T1 sequence (P08183 whole entry)": "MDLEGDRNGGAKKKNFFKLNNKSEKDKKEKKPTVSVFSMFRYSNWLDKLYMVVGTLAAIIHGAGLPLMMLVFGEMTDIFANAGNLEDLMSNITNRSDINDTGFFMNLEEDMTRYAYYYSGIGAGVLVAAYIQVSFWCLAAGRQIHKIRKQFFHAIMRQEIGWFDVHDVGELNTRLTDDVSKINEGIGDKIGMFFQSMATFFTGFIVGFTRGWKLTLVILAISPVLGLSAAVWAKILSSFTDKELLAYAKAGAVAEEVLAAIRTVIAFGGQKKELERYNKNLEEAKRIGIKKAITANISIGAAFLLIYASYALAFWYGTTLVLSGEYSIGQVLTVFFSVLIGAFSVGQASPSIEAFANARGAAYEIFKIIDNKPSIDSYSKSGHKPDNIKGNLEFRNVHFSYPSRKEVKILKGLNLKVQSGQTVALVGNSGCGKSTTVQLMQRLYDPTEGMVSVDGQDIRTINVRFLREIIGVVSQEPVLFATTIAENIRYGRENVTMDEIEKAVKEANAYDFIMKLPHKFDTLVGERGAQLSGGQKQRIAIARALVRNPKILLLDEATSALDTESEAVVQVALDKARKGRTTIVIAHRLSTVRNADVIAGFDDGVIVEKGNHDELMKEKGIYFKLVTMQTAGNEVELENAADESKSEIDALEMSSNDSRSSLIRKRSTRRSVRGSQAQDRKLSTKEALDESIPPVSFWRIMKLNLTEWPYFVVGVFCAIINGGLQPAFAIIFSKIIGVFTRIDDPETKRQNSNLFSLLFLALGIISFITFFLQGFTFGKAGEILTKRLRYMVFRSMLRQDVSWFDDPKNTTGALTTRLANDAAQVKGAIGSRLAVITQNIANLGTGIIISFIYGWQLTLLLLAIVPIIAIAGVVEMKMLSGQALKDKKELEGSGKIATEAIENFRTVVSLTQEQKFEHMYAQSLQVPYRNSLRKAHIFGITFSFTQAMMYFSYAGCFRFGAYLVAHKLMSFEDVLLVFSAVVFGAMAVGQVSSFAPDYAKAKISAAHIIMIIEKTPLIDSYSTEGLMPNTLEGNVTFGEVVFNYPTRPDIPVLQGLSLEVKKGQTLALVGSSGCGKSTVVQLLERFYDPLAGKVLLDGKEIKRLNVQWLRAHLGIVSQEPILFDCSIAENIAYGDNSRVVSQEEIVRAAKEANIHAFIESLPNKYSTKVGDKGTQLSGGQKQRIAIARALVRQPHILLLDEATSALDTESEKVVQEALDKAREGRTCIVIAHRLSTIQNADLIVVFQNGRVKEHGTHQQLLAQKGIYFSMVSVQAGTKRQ", "experiment": "Effect of PZQ and tariquidar on intracellular accumulation of SQV in CEMVBL cells (inhibition study)", "type": "cell-based", "description": "as §1"}, "[3]": {"experiment": "Freeze-thaw stability of QC samples in DMEM (HPLC)", "type": "physicochemical", "details": "for Effect of freeze thawing on concentration in DMEM: freeze-thawed versus fresh DMEM samples; for Stability, Mean: freeze-thawed versus freshly prepared samples, peak areas", "text": "The separation from endogenous compounds was investigated by analyzing six different samples of DMEM. Short and long term stability was investigated by comparing the peak areas of six freshly prepared QC assay samples to those of the freeze-thawed samples, and it was expressed as a percentage."}, "[4]": {"system": "CEM (parental) T-lymphoblastoid cells", "experiment": "Intracellular accumulation (substrate study) in CEM parental cells", "type": "in vitro ADME", "details": "10 μg/ml drug, 30 min, 37 °C", "description": "The parental cell line was CEM (T-lymphoblastoid cell line) was used as the parental cell line. CEMVBL cells that have increased expression of P-gp were selected under vinblastine. The selection of drug resistant cells was carried out by using increasing concentrations of vinblastine up to 100 ng/mL. CEM and CEMVBL Cells were cultured in 175 cm^2 flasks containing DMEM supplemented with 15 % FBS at 37 °C in a humidified 5 % CO2 gassed incubator, conditions which led to doubling after approximately every 24 h.\nas §1, with “The resulting pellets were solubilized by reconstituting in 100 μl of distilled water and used to determine intracellular (INT) concentrations as described in a method previously validated in our laboratory. The experiment was carried out in quadruplicate.” left out, “[15, 30].” left out"}, "[5]": {"system": "CEMVBL cells which overexpress P-gp", "experiment": "Intracellular accumulation (substrate study) in CEMVBL cells", "type": "in vitro ADME", "description": "The parental cell line was CEM (T-lymphoblastoid cell line) was used as the parental cell line. CEMVBL cells that have increased expression of P-gp were selected under vinblastine. The selection of drug resistant cells was carried out by using increasing concentrations of vinblastine up to 100 ng/mL.\nas §1"}, "[6]": {"system": "P-gp", "parameters": "method as in PMID 16846720", "details": "Caco-2 cell lines; cited from earlier work"}, "[7]": {"system": "cellular efflux pumps (P-gp)", "parameters": "method as in PMID 15847994, PMID 20513441", "details": "cited from earlier work"}, "[8]": {"system": "SMDR2, a P-gp orthologue", "parameters": "method as in PMID 19726755", "details": "cited from earlier work"}}, "note": "Where “and” joins values, the source holds several entries; their conditions need not be identical. Equal entries are not always repeated. Entries after “also recorded” stand apart in the source; their conditions may differ."}
{"smiles": "CC(C)(C)NC(=O)[C@@H]1C[C@@H]2CCCC[C@@H]2CN1C[C@@H](O)[C@H](Cc1ccccc1)NC(=O)[C@H](CC(N)=O)NC(=O)c1ccc2ccccc2n1", "note": "[SQV, Saquinavir]", "values": [{"measurement": "CAR of SQV alone, mean (inhibition study)", "setting": "[1]; 10 μg/ml SQV alone, mean (± SD), n = 4", "result": "0.52 ± 0.068 and 0.52"}, {"measurement": "CAR of SQV alone, individual sample (inhibition study)", "setting": "[1]; 10 μg/ml SQV alone, samples 1-4", "result": "0.57 and 0.50 and 0.59 and 0.44"}, {"measurement": "CAR of SQV alone, mean (inhibition study)", "setting": "[2]; CEMVBL cells, 10 μg/ml SQV alone, mean (± SD), n = 4", "result": "0.09 ± 0.015 and 0.09"}, {"measurement": "CAR of SQV alone, individual sample (inhibition study)", "setting": "[2]; CEMVBL cells, 10 μg/ml SQV alone, samples 1-4", "result": "0.07 and 0.10 and 0.11"}, {"measurement": "Effect of freeze thawing on concentration in DMEM", "setting": "[3]", "result": "did not appear to significantly affect the concentrations"}]}
{"smiles": "O=C(C1CCCCC1)N1CC(=O)N2CCc3ccccc3C2C1", "note": "(centres unmarked) [PZQ, Praziquantel]", "values": [{"measurement": "Cellular accumulation ratio (CAR), individual sample", "setting": "[4]; CAR = (INT/EXT) × 10, samples 1-4", "result": "0.03 and 0.05 and 0.04"}, {"measurement": "Cellular accumulation ratio (CAR), mean", "setting": "[4]; mean (± SD), n = 4", "result": "0.04 ± 0.009 and 0.04"}, {"measurement": "Cellular accumulation ratio (CAR), mean", "setting": "[5]; CEMVBL cells, 10 μg/ml drug, 30 min, 37 °C, mean (± SD), n = 4", "result": "0.05 ± 0.005 and 0.05"}, {"measurement": "Cellular accumulation ratio (CAR), individual sample", "setting": "[5]; CEMVBL cells, 10 μg/ml drug, 30 min, 37 °C, samples 1-4", "result": "0.06 and 0.05"}, {"measurement": "P-gp substrate specificity (conclusion)", "setting": "[5]; comparison of accumulation in CEM and CEMVBL cells", "result": "not a substrate of P-gp; also recorded: neither a substrate nor an inhibitor of P-gp"}, {"measurement": "CAR of SQV in presence of PZQ, mean", "setting": "[1]; 10 μg/ml SQV + 10 μg/ml PZQ, mean (± SD), n = 4", "result": "0.54 ± 0.061 and 0.54"}, {"measurement": "CAR of SQV in presence of PZQ, individual sample", "setting": "[1]; 10 μg/ml SQV + 10 μg/ml PZQ, samples 1-4", "result": "0.45 and 0.57 and 0.59 and 0.53"}, {"measurement": "P-gp inhibition (conclusion)", "setting": "[2]; effect on SQV accumulation in CEMVBL cells compared to tariquidar", "result": "not an inhibitor of P-gp; also recorded: neither a substrate nor an inhibitor of P-gp"}, {"measurement": "Stability, Mean", "setting": "[3]; HQC 19.2 μM in DMEM", "result": "109 (±3) %"}, {"measurement": "Stability, Mean", "setting": "[3]; LQC 6.4 μM in DMEM", "result": "105 (±4) %"}, {"measurement": "Stability, Mean", "setting": "[3]; MQC 12.8 μM in DMEM", "result": "113 (±6) %"}, {"measurement": "Effect of freeze thawing on concentration in DMEM", "setting": "[3]", "result": "did not appear to significantly affect the concentrations"}, {"measurement": "P-gp inhibitor / substrate status", "setting": "[6]", "result": "an inhibitor of P-gp without being a substrate"}, {"measurement": "Interaction with cellular efflux pumps / P-gp substrate status", "setting": "[7]", "result": "did not show potential for interacting with cellular efflux pumps; also recorded: not a substrate"}, {"measurement": "Permeability", "setting": "[7]", "result": "highly permeable substance"}, {"measurement": "Inhibition of transport by SMDR2", "setting": "[8]", "result": "inhibit the transport by SMDR2"}]}
{"smiles": "COc1cc2c(cc1OC)CN(CCc1ccc(NC(=O)c3cc(OC)c(OC)cc3NC(=O)c3cnc4ccccc4c3)cc1)CC2", "note": "[tariquidar]", "values": [{"measurement": "CAR of SQV in presence of tariquidar (XR), mean", "setting": "[1]; 10 μg/ml SQV + 1 μM tariquidar, mean (± SD), n = 4", "result": "0.61 ± 0.102 and 0.61"}, {"measurement": "CAR of SQV in presence of tariquidar (XR), individual sample", "setting": "[1]; 10 μg/ml SQV + 1 μM tariquidar, samples 1-4, listed as XR", "result": "0.55 and 0.51 and 0.73 and 0.66"}]}
